Assay results: US20160090571A1, “CULTURE MEDIA AND METHODS FOR CULTURING MICROORGANISMS” (Orior, LLC, priority 2014, published 2016)

System: microorganism associated with Morgellons disease
Assay: Drug sensitivity / growth inhibition testing of the cultured microorganism
Assay type: cell-based
Conditions: for inhibitory effect on organism growth: antibiotic added to solution
Text: In other studies, Itraconazole and Posaconazole were each added to the culture medium followed by the organism.

Molecule	inhibitory effect on organism growth	inhibition of growth (antifungal agent added to the culture medium followed by the organism)
CC1(C)S[C@@H]2[C@H](NC(=O)[C@H](N)c3ccccc3)C(=O)N2[C@H]1C(=O)O [Ampicillin]	no inhibitory effect	–
O=C(O)c1cn(C2CC2)c2cc(N3CCNCC3)c(F)cc2c1=O [Ciprofloxacin]	no inhibitory effect	–
CC[C@H]1OC(=O)[C@H](C)[C@@H](O[C@H]2C[C@@](C)(OC)[C@@H](O)[C@H](C)O2)[C@H](C)[C@@H](O[C@@H]2O[C@H](C)C[C@H](N(C)C)[C@H]2O)[C@](C)(O)C[C@@H](C)C(=O)[C@H](C)[C@@H](O)[C@]1(C)O [Erythromycin]	no inhibitory effect	–
CC[C@@H]([C@H](C)O)n1ncn(-c2ccc(N3CCN(c4ccc(OC[C@@H]5CO[C@@](Cn6cncn6)(c6ccc(F)cc6F)C5)cc4)CC3)cc2)c1=O [Posaconazole]	–	Neither antifungal agent was shown to inhibit growth
CN(C)[C@@H]1C(O)=C(C(N)=O)C(=O)[C@@]2(O)C(O)=C3C(=O)c4c(O)cccc4[C@@](C)(O)[C@H]3C[C@@H]12 [Tetracycline]	no inhibitory effect	–
Neomycin	no inhibitory effect	–
Penicillin	no inhibitory effect	–
